This is an account of results in patent US9809521B2, “Cannabidinoid derivatives” (priority 2011, dated 2017).

The structures appear in SMILES notation. Entries after “also recorded” stand apart in the source; their conditions may differ. Where two headings read alike, the source gives them in different places. Marks after values point to notes of the source that are not given here.

The subject of series [1] is MDA-MB231 cells. Put plainly: MTT cell proliferation/viability assay. From the text: (§1) The structure of O-1442 and O-1663 are almost identical with the exception of one R group. A smaller subset of the same analogs, including O-1442 and O-1663, were further screened for their ability to inhibit 4T1 breast cancer cell viability in anticipation of running in vivo experiments in immune competent mice (TABLE 5).
(§2) To directly test whether the O-1663 CBD analog could co-target two distinct cannabinoid antitumor pathways, the effects of CBD and the O-1663 CBD analog on cell viability with multiple antagonists were probed (FIG. 25). […] The ability of the O-1663 CBD analog and CBD to inhibit invasion was next compared (FIG. 25, panel C).

Another series concerns MDA-MB436 cells. Put plainly: MTT cell proliferation assay. Conditions: read-out: IC50, antiproliferative, MDA-MB436. (Tetrazolium assays rely on reduction of a dye to a coloured formazan, in cell work by metabolically active cells.)
A further series relates to SF126 cells. Put plainly: MTT cell proliferation assay. Conditions: read-out: IC50, SF126.
Series [2] relates to MDA-MB231 cells. The series can be described thus: Boyden chamber invasion assay. Format: cell-based, human. Conditions: 0.1, 1.0 or 1.5 μM. As to the method:
Boyden chamber MDA-MB231 cell invasion studies with CBD, Δ^9-THC, or WIN 55,212-2. Invasion is an important step towards breast cancer cell metastasis. Therefore, the effects of several cannabinoids were tested on their ability to modulate the migratory and invasiveness activity of the most aggressive human breast cancer cell line, MDA-MB231, in a reconstituted basement membrane in a Boyden chamber.
Assays using Id-1 promoter reporter transfected MDA-MB231 cells with CBD. To determine if Id-1 represented a key mediator of CBD effects in highly aggressive breast cancer cells, Id-1 was constitutively expressed into MDA-MB231 cells (+)Id-1 as described in FIG. 2. The ectopic Id-1 gene, which is not under the control of the endogenous promoter, was introduced in the cells using the pLXSN retroviral vector. As a control, cells were infected with an empty pLXSN vector (−)Id-1.
Boyden chamber MDA-MB231 cell invasion studies with CBD and O-1663 CBD analog. Boyden chamber studies for invasion by MDA-MB231 or U251 cells were performed with either CBD or O-1663 CBD analog.
as §2

The test system of the next series is Id-1. Put plainly: Quantitative Western analysis of Id-1 protein expression in MDA-MB231 cells. The class given is cell-based, human. The conditions noted are these: 1.5 μM, two days. The procedure: Quantitative Western analysis of Id-1 Expression in MDA-MB231 cells with CBD, Δ^9-THC, or WIN 55,212-2. The ability of CBD to regulate the expression of key genes that control breast cancer cell aggressiveness and invasiveness was determined.
SAR Analysis of Id-1 expression in MDA-MB231 cells with (Abn)-CBD receptor, Abn-CBD, O-1602, CP55,940, THC, CBN, or CBD. In order to determine the structure activity relationship (“SAR”) between cannabinoids and the inhibition of Id-1, MDA-MB231 cells were treated for two days with multiple cannabinoid compounds and Id-1 protein levels were assessed.
Quantitative Western analysis of Id-1 expression in MDA-MB231 cells and U251 cells with CBD or O-1663 CBD analog. […] MDA-MB231 breast cancer cells and U251 GBM cells were treated with 1.0 μM of cannabinoid for two days and then analyzed for Id-1 protein expression by quantitative Western analysis.

Series [3] deals with U251 cells. Put plainly: Boyden chamber invasion assay. The class given is cell-based, human. From the text:
Boyden chamber U251 cell invasion studies with CBD and/or Δ^9-THC. In addition to uncontrolled cell growth, a hallmark phenotype of aggressive GBM tumor cells is their ability to migrate away for the primary tumor of origin and invade into neighboring CNS tissue.

The next series deals with 4T1 cells. The series can be described thus: Cell viability assay. The class given is cell-based, mouse. The conditions noted are these: Table 5; read-out: IC50, 4T1 cell viability.
Text: as §1

The subject of another series is ROS. Put plainly: ROS measurement in MDA-MB231 cells. Format: cell-based, human. The conditions noted are these: two days; approximate IC50 for CBD and THC. From the text:
In culture, CBD-induced generation of ROS is a primary mechanism that leads to inhibition of cell growth, invasion, and survival across multiple cancers. The generation of ROS by CBD leads to the inhibition of Id-1 expression in breast cancer cells. […] The ability of CBD and the O-1663 CBD analog to stimulate the production of ROS was next compared. […] The involvement of CB2 receptors in the productions of ROS produced by CBD and the O-1663 CBD analog was next investigated.

The test system of series [4] is U251 cells. The series can be described thus: Cell cycle analysis (PI staining, FACS). The class given is cell-based, human. The conditions noted are these: THC 1.7 μM, CBD 0.4 μM. As to the method: Cell cycle analysis: U251 cells were grown in Petri dishes (100 mm×15 mm) and received drug treatments for 2 days. On the third day, the cells were harvested and centrifuged at 1200 rpm for 5 minutes. The pellet was washed 1× with PBS+1% BSA, and centrifuged again. The pellet was re-suspended in 0.5 ml of 2% paraformaldehyde (diluted with PBS) and left to fix overnight at room temperature. The next day the cells were pelleted and re-suspended in 0.5 ml 0.3% Triton in PBS and incubated for 5 minutes at room temperature. The cells were then washed 2 times with PBS+1% BSA. The cells were finally suspended in PBS (0.1% BSA) with 10 ug/ml Propidium Iodide and 100 μg/ml RNAse. The cells were incubated for 30 minutes at room temperature before being stored at 4° C. Cell cycle was measured using a FACS Calibur using Cell Quest Pro and Modfit software.
Apoptosis Studies using U251 cells with Δ^9-THC and/or CBD. […] Therefore, U251 cells were treated with THC and CBD alone or with the combination of the two, and cell cycle was analyzed using cell flow cytometery (FIG. 20). […] Additionally, there was an increase in the population of cells in the G2/M phase. These changes in G1, S and G2/M phase are hallmarks of cell cycle arrest.
(§3) Albeit, the magnitude of these effects was reduced compared to those observed with the combination treatment.

Series [5] deals with U251 cells. The series can be described thus: Apoptosis (annexin staining, FACS). Format: cell-based, human. As to the method:
Apoptosis: Cells were grown in 6 well culture dishes and were treated with compounds of the disclosure every 24 hours for three days. […] The labeled cells were analyzed by flow cytometry. Cell Flow Cytometry in combination with PI and annexin staining was used to quantify the percentage of cells undergoing apoptosis in control and treatment groups. Percent control was calculated as annexin positive staining in treated cells/control cells×100. PI staining was used to distinguish necrotic cells from those undergoing apoptosis.
as §3
The concentrations of the individual cannabinoids (THC and CBD) were next increased in order to attempt to match levels of apoptosis produced by the combination treatment. The purpose of these experiments was to determine whether the compounds alone recruited similar pathways as compared to the combination of THC and CBD. […] However, THC alone could not produce the level of apoptosis observed with the combination treatment (FIG. 23, panel A and B).

The next series has as its system caspase 3, 7, 9 and PARP. The series can be described thus: Western analysis of caspases and PARP in U251 cells. The class given is cell-based, human. The conditions noted are these: THC 1.7 μM, CBD 0.4 μM, three days. From the text:
Caspases play a primary role in the regulation of programmed cell death.

For another series, the system named is U87 cells. The series can be described thus: MTT cell proliferation assay. The conditions noted are these: read-out: IC50, U87; seven day treatment; 95% confidence limits in brackets.
The subject of series [6] is U251 cells. Put plainly: MTT cell proliferation assay. Conditions: read-out: IC50, U251; seven day treatment; 95% confidence limits in brackets.
The next series relates to pERK, JNK, p38 MAPK. Put plainly: Western analysis of MAPK activity in U251 cells.
Setting [7] is: Homo sapiens, MDA-MB-231, 72 h, read-out: IC50, antiproliferative, MDA-MB231.
[8] abbreviates: read-out: IC50, antiproliferative, MDA-MB231, treated for three days, MTT, confidence limits in brackets.
[9] abbreviates: treated for three days, MTT, confidence limits in brackets.
Where [10] appears, read: seven day treatment, 95% confidence limits in brackets.

Usually IC50 stands for the concentration that inhibits the measured activity by half. Regarding `CCCCCc1cc(O)c(C/C=C(\C)CCC=C(C)C)c(O)c1` [CBG, cannabigerol], the IC50 was 2.3 µM with MDA-MB231 cells [1] (setting [7]); 2.1 µM with MDA-MB436 cells (Homo sapiens, MDA-MB-436, 72 h); 1.6 µM in the series on SF126 cells (Homo sapiens, SF-126, 72 h).
With `CCCCCc1cc(O)c2c(c1)OC(C)(C)[C@@H]1CCC(C)=C[C@@H]21` [THC, Δ^9-tetrahydrocannabinol], the IC50 in the series with MDA-MB231 cells [1] (read-out: IC50, MDA-MB231 cell viability, Table 5) is 3 µM; in the series on MDA-MB231 cells [1] (setting [8]), 1.2 µM; with U251 cells [3] (Boyden chamber, limits 49-150, read-out: predicted IC50, U251 cell invasiveness), 0.085 µM; with 4T1 cells, 2.3 µM; in the series with MDA-MB436 cells (setting [9]) it was 2.5 µM; in the series with SF126 cells (setting [10]) it was 0.9 µM. The IC50 in the series on SF126 cells (three day treatment, Table 3) was 2.5 µM; with U87 cells it was 1.6 µM; in the series with U251 cells [6], 1.1 µM. Further, the “invasion of MDA-MB231 cells” value in the series on MDA-MB231 cells [2] is recorded as “significantly reduced the invasion”. Further, in the series on Id-1, the “inhibition of Id-1 (structure activity relationship)” value is recorded as “had no activity against Id-1; also recorded: No inhibition of Id-1”. In the series on U251 cells [3], the “invasiveness of U251 cells” value is reported as “effectively inhibited the invasiveness of U251 cells”. In addition, the “generation of ROS” value in the series on ROS is recorded as “no significant increase in ROS”. The cell cycle phases entry with U251 cells [4] was “increases in the population of cells in G1 and G2/M phase and decreases in cells in S phase”. For the same compound, the “block of apoptosis by CB2 antagonist SR144528” value in the series with U251 cells [5] (0.5 μM SR144528, combination 1.7/0.4 μM, 2.5 μM THC, 2.0 μM CBD) was “partially blocked by the CB2 antagonist”. The “block of apoptosis by α-tocopherol” value in the series with U251 cells [5] (20 μM α-tocopherol, combination 1.7/0.4 μM, 2.5 μM THC, 2.0 μM CBD) is recorded as “completely blocked by α-tocopherol”. For the same compound, the “apoptosis (annexin)” value in the series with U251 cells [5] (THC 1.7 μM, CBD 0.4 μM, three days) was “did not produce significant changes in apoptosis”. In the series on caspase 3, 7, 9 and PARP, the “caspase 3, 7, 9 and PARP” value is “Small increases in the activity of caspase 7, caspase 9 and PARP but not caspase 3”. The “p-ERK, higher concentrations alone” value in the series with pERK, JNK, p38 MAPK (2.5 μM Δ^9-THC, 2.0 μM CBD, three days) was “had no effect on p-ERK activity”. For the same compound, the pERK entry in the series with pERK, JNK, p38 MAPK (THC 1.7 μM, CBD 0.4 μM, two days) is on record as “no changes in pERK were observed”.
Regarding `C=C(C)[C@@H]1CCC(C)=C[C@H]1c1c(O)cc(O)cc1CCCCC` [Abn-CBD], the “inhibition of Id-1 (structure activity relationship)” value in the series on Id-1 is reported as “No inhibition of Id-1”.
Consider `C=C(C)[C@@H]1CCC(C)=C[C@H]1c1c(C)cc(O)cc1O` [Compound 0-1602], for which the “inhibition of Id-1 (structure activity relationship)” value in the series on Id-1 is reported as “No inhibition of Id-1”.
Regarding `CCCCCCC(C)(C)c1ccc([C@@H]2C[C@H](O)CC[C@H]2CCCO)c(O)c1` [CP 55, 940], the IC50 in the series on MDA-MB231 cells [1] (setting [7]) came to 2.5 µM; with MDA-MB436 cells (Homo sapiens, MDA-MB-436, 72 h), 1.3 µM; with SF126 cells (Homo sapiens, SF-126, 72 h), 3.3 µM. The “inhibition of Id-1 (structure activity relationship)” value with Id-1 is on record as “less effective than CBD; also recorded: small inhibition of Id-1; also recorded: partially inhibit Id-1”.
Take `Cc1c(C(=O)c2cccc3ccccc23)c2cccc3c2n1[C@H](CN1CCOCC1)CO3` [WIN 55, 212-2]: the IC50 stood at 1.7 µM with MDA-MB231 cells [1] (setting [8]); 2.4 µM in the series on MDA-MB436 cells (setting [9]); 0.84 µM in the series on SF126 cells (setting [10]); 1.3 µM in the series on SF126 cells (three day treatment, Table 3); 0.77 µM in the series on U87 cells; 1.1 µM in the series on U251 cells [6]. Moreover, the “invasion of MDA-MB231 cells” value in the series on MDA-MB231 cells [2] is reported as “significantly reduced the invasion”.
Consider `CCCCCCC(C)(C)c1cc(OC)c(C2(O)CCCC(C)C2)c(OC)c1` (stereo not drawn) [Compound O-2137], for which the “Percent inhibition of cell viability, MDA-MB231” value in the series with MDA-MB231 cells [1] (at 5 μM) is listed as 45%^a. In the series with 4T1 cells, the IC50 turned out to be 3.5 µM.
For `CCCCCc1cc(O)c2c(c1)OC(C)(C)c1ccc(C)cc1-2` [CBN, cannabinol], the “inhibition of Id-1 (structure activity relationship)” value in the series on Id-1 is given as “partially inhibit Id-1”.
